Experimental data: patent EP2436673A1 (Niaraki, Anna, priority 2010, dated 2012)
pKd: −log10 of the molar value. Blank lines part the entries; values can stand above or below the compound they belong to.

Tests used:
Aβ1-42 monomers = target: T1, Aβ1-42 monomers (Homo sapiens, UniProt P05067); assay: Surface Plasmon Resonance (SPR) binding to immobilized Aβ1-42 monomers
T1 construct: The native Aβ1-42 peptide was then obtained from the depsi peptide; made in house; host or cells: chemical peptide synthesis (depsi-peptide, then pH switch)
T1 sequence (P05067 672-713 limits assumed): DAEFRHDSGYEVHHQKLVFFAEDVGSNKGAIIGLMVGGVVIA
Method: (§1) For these studies we used the ProteOn XPR36 (Biorad) apparatus, which has six parallel flow channels that can be used to uniformly immobilize strips of six "ligands" on the sensor surface. Aβ1-42 "monomers" or fibrils were immobilized in two of these parallel-flow channels of a GLC sensor chip (Biorad) using amine-coupling chemistry. Briefly, after surface activation the peptide solutions (10 µM in acetate buffer pH 4.0) were injected for 5 min at a flow rate of […], and the remaining activated groups were blocked with ethanolamine, pH 8.0. Bovine serum albumin (BSA) was also immobilized in another parallel flow channel, as a reference protein. […] A fourth surface was prepared using the same immobilization procedure but without addition of the peptide ("empty", reference surface).
(§2) The fluidic system of Proteon XPR36 can automatically rotate 90° so that up to six different "analytes" (e.g. different liposomes prepations, or different concentrations of the same preparation) could be injected simultaneously over all the different immobilized molecules.
(§3) ProteOn analysis software (BioRad) was used for the fitting of sensorgrams, to obtain the association and dissociation rate constants of the binding (Kon and Koff) and the corresponding KD value. The simplest 1:1 interaction model (Langmuir model) is used at first.

Aβ1-42 fibrils = target: T2, Aβ1-42 fibrils (Homo sapiens, UniProt P05067); assay: Surface Plasmon Resonance (SPR) binding to immobilized Aβ1-42 fibrils
T2 construct: made in house; host or cells: chemical peptide synthesis (depsi-peptide, pH switch, then acid incubation to fibrils)
T2 sequence (P05067 672-713 limits assumed): as above
Method: To prepare Aβ1-42 fibrils, the switched peptide solution was diluted with water to 100 µM, acidified to pH 2.0 with 1 M HCl, and left to incubate for 24 hrs at 37 °C [56].
as §1, §2, §3

Aβ aggregation = details: reported in literature; cited from earlier work
[1] = additional, fibril-specific binding component, two-sites model
[2] = SPR, liposomes 18 at 300 nM exposed curcumin-derivative, plain liposomes at 1360 nM

pKd (Aβ1-42 monomers; Aβ1-42 monomers, rough estimate from Kon and Koff after global fitting, one-site model): 4.64
pKd (Aβ1-42 fibrils; [1]): 5.15
koff (Aβ1-42 fibrils; [1]): 0.001 s⁻¹
kon (Aβ1-42 fibrils; [1]): 163 M⁻¹ s⁻¹
Structure (SMILES): COc1cc(/C=C/c2cc(/C=C/c3ccc(O)c(OC)c3)n(CC(=O)NCc3cn(CCOCCOCCO)nn3)n2)ccc1O [TREG, 2-(3,5-bis((E)-4-hydroxy-3-methoxystyryl)-1H-pyrazol-1-yl)-N-((1-(2-(2-(2-hydroxyethoxy)ethoxy)ethyl)-1H-1,2,3-triazol-4-yl)methyl)acetamide]

Structure (SMILES): COc1cc(/C=C/C(=O)CC(=O)/C=C/c2ccc(O)c(OC)c2)ccc1O [curcumin, Curcumin]
inhibition of Aβ aggregation (in words) (Aβ aggregation): inhibits Aβ aggregation in the low µM range

binding to Aβ1-42 fibrils (in words) (Aβ1-42 fibrils; [2]): only bound to Aβ fibrils
Structure (SMILES): Nc1c(/N=N/c2ccc(-c3ccc(/N=N/c4cc(S(=O)(=O)O)c5ccccc5c4N)cc3)cc2)cc(S(=O)(=O)O)c2ccccc12 [Congo-Red, reference compound]
binding to Aβ1-42 monomers (in words) (Aβ1-42 monomers; [2]): only bound to Aβ fibrils but not "monomers"
